Legend:
[1] = system: HT-29 cells; experiment: LC-MS of lysed cells after dosing with the nanocage-antibody complex; type: cell-based; settings: delivered by the nanocage with anti-EGFR; cells washed prior to lysis
Description: HT-29 cells were grown in DMEM medium with 10% FBS overnight. Cells were then treated with the nanocage-antibody complex (100 μl) at 37° C. for different 48 h and 72 h. After incubation, the cells were washed 3× with cold PBS. Re-suspended cells were analysed by LC-MS (Agilent 6550), data were quantified using a 20 ppm window for Dox and PI based on a calibrated standard;
Purified protein and cell extract samples were analysed by LCMS on an Agilent 6550. LC separation was achieved using a 1290 Infinity system (Agilent, Santa Clara, Calif.) and a Vydac 214MS C4 column, 2.1×150 mm and […], (Grace, Columbia, Md.) at a temperature of 35° C. with a buffer flow rate of 0.2 ml/min. with a denaturing mobile phase: buffer A was 0.1% formic acid in water and buffer B was 0.1% formic acid in acetonitrile. Elution of components was achieved using a linear gradient from 3% to 40% buffer B over 18.5 min. On-line mass spectra were accumulated on a 6550 quadrupole time-of-flight instrument with a dual electrospray Jet Stream source (Agilent). Mass spectra were acquired of the m/z range of 100-1700 at a rate of 0.6 spectra per second. […]
Further evaluation of drug delivery was performed by mass spectrometry. Following the dosing procedure used above, cells were washed prior to lysis and drug presence measured by LC-MS (Agilent 6550). […]

[2] = system: HT-29 cells; experiment: Phenotypic cell death assay using Vybrant cell staining and flow cytometry; type: cell-based; settings: after 48 h, free drug alone, 5 μM
Description: HT-29 cells were trypsinised and cell viability was assessed using the Trypan blue exclusion assay—count cells treated with Trypan blue dye using a haemocytometer, and determine the volume of cell suspension that contains 5×10^5 live cells. Live cells (5×10^5) seeded into a 12-well plate with a final volume of 500 μL. This final 500 μL volume will consist of 5×10^5 cells+medium+drug-Au-ZZ-hFTN+anti-EGFR antibody (0.5-1 μg). The plate was incubated in a tissue culture incubator set at 37° C., 5% CO2, 95% humidity for 24 h or 48 h before the experiment was stopped. Uptake of drug-Au-ZZ-hFTN by cells was stopped by removing the 500 μL solution containing test or control compounds, trypsinising cells and pelleting cells in preparation for cytotoxicity assays, e.g. Vybrant cell apoptosis assay. […] Within 30 min after the incubation period, the stained cells were analysed by flow cytometry, using 488 nm excitation with green fluorescence emission for YOPRO R-1 (i.e., 530/30 bandpass) and red fluorescence emission for propidium iodide (i.e., 610/20 bandpass), gating on cells to exclude debris. […] The stained cell population will separate into three groups: live cells show a low level of green fluorescence, apoptotic cells show an incrementally higher level of green fluorescence, and dead cells show both red and green fluorescence. […]

[3] = system: HT29 cells; experiment: Flow cytometry, antibody directed cell binding of GFP nanocage; type: cell-based
Description: (§1) Purified wt ZZ-GFP-hFTN (20 μg) was mixed with either anti-NK1.1 antibody (1 μg) or anti-EGFR antibody (1 μg) in 210 μl of PBS. For each assay, 50 μl of the nanocage-antibody was mixed with 1×10^6 cells of either HT29 or MNK1.1 in 100 μl. Cells were analysed an a BD Fortessa using the FITC channel (ex 488 nm; emm 530-30 nm) to observe GFP fluorescence. […] Nanocage antibody are shown with MNK1.1 cells (B) and HT29 cells (D);
(§2) Flow cytometry was performed on a BD Fortessa using the FITC channel to observe GFP (ex 488 nm; emm 530-30 nm; ToPro-3 was imaged in red channel (640 nm ex; 670/14 emission). Data was analysed using Flow-Jo software.
(§3) Ferritin fusions containing an N-terminal ZZ domain, in principle, should be able to bind to IgG isotype antibodies since the Z-domain is a synthetic derivative of an IgG binding domain from Staphylococcus aureus protein A. The inventors evaluated the specificity with which they can direct the targeting of the ferritin nanocage to specific cell types by direct antibody interactions. To establish a fluorescent basis for determining cell binding they used the GFP labelled wt ZZ-GFP-hFTN.

[4] = system: MNK1.1 cells; experiment: as above; type: cell-based, mouse
Description: as §1, §2, §3

In the case of COc1cccc2c1C(=O)c1c(O)c3c(c(O)c1C2=O)C[C@@](O)(C(=O)CO)C[C@@H]3O[C@H]1C[C@H](N)[C@H](O)[C@H](C)O1 [Dox, doxorubicin], the “drug presence in lysed cells by LC-MS” value [1] is reported as “present in the lysed cells”.
With CC[N+](C)(CC)CCC[n+]1c(-c2ccccc2)c2cc(N)ccc2c2ccc(N)cc21.[I-].[I-] [PI, propidium iodide] the “drug presence in lysed cells by LC-MS” value [1] was “present in the lysed cells”.
Work on CC(=O)O[C@H]1C(=O)[C@@]2(C)[C@H]([C@H](OC(=O)c3ccccc3)[C@]3(O)C[C@H](OC(=O)[C@H](O)[C@@H](NC(=O)c4ccccc4)c4ccccc4)C(C)=C1C3(C)C)[C@]1(OC(C)=O)CO[C@@H]1C[C@@H]2O [Pac, Paclitaxel] yielded a cell death [2] of roughly 9%.
In the case of “wt ZZ-GFP-hFTN: wild-type human heavy chain ferritin with N-terminal ZZ antibody binding domain and GFP, forms nanocage”, the “binding of the nanocage to cells (GFP fluorescence)” value (shortened to “binding of the nanocage to cells”) ([3]; absence of antibody) is reported as “no discernible background binding”, the “binding of the nanocage to cells” value ([3]; presence of anti-EGFR antibody) is reported as “complete shift in the fluorescence of the population” and the “binding of the nanocage to cells” value ([4]; absence of antibody) is reported as “no discernible background binding”. The “binding of the nanocage to cells” value ([4]; presence of anti-NK1.1 antibody) was “complete shift in the fluorescence of the population”.
